# Assay results published in patent US8722720B2, “Imidazole derivatives as IDO inhibitors” (NewLink Genetics Corporation, priority 2010, dated 2014).
# Target: T1, purified human IDO protein (Homo sapiens, UniProt P14902)
# T1 construct: 2 extra amino acids (linker from the BglII cloning site of pQE70); made in house; host or cells: E. coli M15(pREP4) with plasmid pQE70-hIDO
# Test: Enzymatic IDO assay (kynurenine production, absorbance at 480 nm)
# Assay type: biochemical
# Conditions: hIDO IC50, recombinant human IDO; values reported in ranges
# Procedure, shortened: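 Inhibitors (final 1 mM to 5 nM, in 50 mM potassium phosphate) preincubated with enzyme 5 min at 25 °C, then 200 μM L-tryptophan added, 15 min at 37 °C. TCA stop and 60 °C hydrolysis to kynurenine, detected with p-dimethylaminobenzaldehyde at 480 nm. IC50 by nonlinear regression.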
# T1 sequence (P14902 whole entry P110S/E119G): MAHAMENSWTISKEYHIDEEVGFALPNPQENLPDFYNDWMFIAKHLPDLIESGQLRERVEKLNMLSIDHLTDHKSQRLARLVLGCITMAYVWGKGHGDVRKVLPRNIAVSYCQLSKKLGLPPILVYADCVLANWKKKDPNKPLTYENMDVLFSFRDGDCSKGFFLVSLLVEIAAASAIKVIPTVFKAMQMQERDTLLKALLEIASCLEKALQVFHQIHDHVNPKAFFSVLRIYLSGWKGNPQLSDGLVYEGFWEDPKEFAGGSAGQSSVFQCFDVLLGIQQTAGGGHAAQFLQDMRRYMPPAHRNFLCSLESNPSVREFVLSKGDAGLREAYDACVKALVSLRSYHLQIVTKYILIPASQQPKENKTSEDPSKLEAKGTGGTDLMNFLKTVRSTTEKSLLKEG
row,SMILES,IC50
1,"CN(C(=O)Oc1ccc(Cl)cc1-c1c[nH]cn1)c1ccccc1 [compound 1088, 4-chloro-2-(1H-imidazol-4-yl)phenyl methyl(phenyl)carbamate]",> 100 µM
2,"CN(C)C(=O)Oc1ccc(Br)cc1-c1c[nH]cn1 [compound 1035, 4-bromo-2-(1H-imidazol-4-yl)phenyl dimethylcarbamate]",> 100 µM
3,"CN(C)C(=O)Oc1ccc(Cl)cc1-c1c[nH]cn1 [compound 1076, 4-chloro-2-(1H-imidazol-4-yl)phenyl dimethylcarbamate]",> 100 µM

# Same assay, conditions: recombinant human IDO; values reported in ranges; read-out: hIDO IC50
row,SMILES,IC50
1,"CC(C)(C)CCOc1ccc(O)cc1-c1c[nH]cn1 [compound 1110, 4-(3,3-dimethylbutoxy)-3-(1H-imidazol-4-yl) phenol]",10 to 100 µM
2,"c1ccc2oc(-c3c[nH]cn3)cc2c1 [compound 1026, 4-(benzofuran-2-yl)-1H-imidazole]",> 100 µM
3,"c1nc(-c2ccc3[nH]ccc3c2)c[nH]1 [compound 949, 5-(1H-imidazol-4-yl)-1H-indole]",> 100 µM
4,"c1ccc(-c2c[nH]cn2)c(OCCN2CCOCC2)c1 [compound 1236, 4-(2-(2-(1H-imidazol-4-yl)phenoxy)ethyl) morpholine]",> 100 µM
5,"c1ccc2c(c1)NCn1cncc1-2 [compound 1114, 5,6-dihydroimidazo[1,5-c]quinazoline]",> 100 µM
6,"COC(=O)[C@@H](Cc1cn(C)c2ccccc12)NC(=O)Oc1ccc(Cl)cc1-c1c[nH]cn1 [compound 1264, (R)-methyl 2-(((4-chloro-2-(1H-imidazol-4-yl)phenoxy)carbonyl)amino)-3-(1-methyl-1H-indol-3-yl) propanoate]",1 to 10 µM
7,"COc1cc(F)c(Cl)cc1-c1cnc[nH]1 [compound 1051, 5-(5-chloro-4-fluoro-2-methoxyphenyl)-1H-imidazole]",> 100 µM
8,"FC(F)(F)c1ccc(COc2ccccc2-c2c[nH]cn2)cc1 [compound 1023, 4-(2-(4-(trifluoromethyl)benzyloxy)phenyl)-1H-imidazole]",> 100 µM
9,"C=CCn1cncc1-c1ccccc1 [compound 1131, 1-allyl-5-phenyl-1H-imidazole]",> 100 µM
10,"O=C(O)c1ccccc1-c1c[nH]cn1 [compound 926, 2-(1H-imidazol-4-yl)benzoic acid]",> 100 µM
11,"c1cnc(-c2c[nH]cn2)nc1 [compound 972, 2-(1H-imidazol-4-yl)pyrimidine]",> 100 µM
12,"c1ccc(-c2c[nH]cn2)c(OCCc2ccc(-c3ccsc3)cc2)c1 [compound 1201, 4-(2-(4-(thiophen-3-yl)phenethoxy)phenyl)-1H-imidazole]",10 to 100 µM
13,"Oc1ccc(Cl)cc1-c1cnc2cnccn12 [compound 1038, 4-chloro-2-(imidazo[1,2-a]pyrazin-3-yl)phenol]",> 100 µM
14,"CN(C)c1ccc(CCOc2ccccc2-c2c[nH]cn2)cc1 [compound 1181, 4-(2-(2-(1H-imidazol-4-yl)phenoxy)ethyl)-N,N-dimethylaniline]",10 to 100 µM
15,"CNC(=O)c1ccccc1CCOc1ccccc1-c1c[nH]cn1 [compound 1332, 2-(2-(2-(1H-imidazol-4-yl)phenoxy)ethyl)-N-methylbenzamide]",> 100 µM
16,"c1nc(-c2ccc3c(c2)OCCO3)c[nH]1 [compound 971, 4-(2,3-dihydrobenzo[b][1,4]dioxin-6-yl)-1H-imidazole]",> 100 µM
17,"COc1cccc2c1-c1cncn1C2 [compound 1013, 9-methoxy-5H-imidazo[5,1-a]isoindole]",10 to 100 µM
18,"BrCCOc1ccccc1-c1c[nH]cn1 [compound 1243, 4-(2-(2-bromoethoxy)phenyl)-1H-imidazole]",10 to 100 µM
19,"Oc1ccc(Cl)cc1-c1cncn1-c1cccnc1 [compound 1122, 4-chloro-2-(1-(pyridin-3-yl)-1H-imidazol-5-yl)phenol]",10 to 100 µM
20,"O=C(CC1CCOCC1)Nc1ccc(Cl)c(CCOc2ccccc2-c2c[nH]cn2)c1 [compound 1298, N-(3-(2-(2-(1H-imidazol-4-yl)phenoxy)ethyl)-4-chlorophenyl)-2-(tetrahydro-2H-pyran-4-yl)acetamide]",10 to 100 µM

# The next lines start with the values.
row,IC50,SMILES
1,1 to 10 µM,"O=C(COc1ccccc1-c1c[nH]cn1)C1CCCCC1 [compound 1354, 2-(2-(1H-imidazol-4-yl)phenoxy)-1-cyclohex-ylethanone]"
2,10 to 100 µM,"c1ccc(-c2c[nH]cn2)c(OCCC2CCCO2)c1 (centres unmarked) [compound 1213, 4-(2-(2-(tetrahydrofuran-2-yl)ethoxy)phenyl)-1H-imidazole]"
3,< 1 µM,"O=C(CC1CCOCC1)Nc1ccc(CCOc2ccccc2-c2c[nH]cn2)c(Cl)c1 [compound 1260, N-(4-(2-(2-(1H-imidazol-4-yl)phenoxy)ethyl)-3-chlorophenyl)-2-(tetrahydro-2H-pyran-4-yl)acetamide]"
4,10 to 100 µM,"c1csc(CCOc2ccccc2-c2c[nH]cn2)c1 [compound 1198, 4-(2-(2-(thiophen-2-yl)ethoxy)phenyl)-1H-imidazole]"
5,10 to 100 µM,"Fc1cccc(-c2c[nH]cn2)c1OCCc1ccccc1Cl [compound 1296, 4-(2-(2-chlorophenethoxy)-3-fluorophenyl)-1H-imidazole]"
6,10 to 100 µM,"Clc1ccccc1CCOc1ccc(Br)cc1-c1c[nH]cn1 [compound 1021, 4-(5-bromo-2-(2-chlorophenethoxy)phenyl)-1H-imidazole]"
7,1 to 10 µM,"O=C(Cc1cncnc1)Nc1ccc(CCOc2ccccc2-c2c[nH]cn2)cc1 [compound 1239, N-(4-(2-(2-(1H-imidazol-4-yl)phenoxy)ethyl)phenyl)-2-(pyrimidin-5-yl)acetamide]"
8,1 to 10 µM,"CCOC(=O)Nc1ccc(CCOc2ccccc2-c2c[nH]cn2)cc1 [compound 1104, ethyl 4-(2-(2-(1H-imidazol-4-yl)phenoxy)ethyl)phenylcarbamate]"
9,10 to 100 µM,"CC(=O)Nc1ccc(CCOc2cccc(O)c2-c2cnc[nH]2)cc1 [compound 1232, N-(4-(2-(3-hydroxy-2-(1H-imidazol-5-yl)phenoxy)ethyl)phenyl)acetamide]"
10,10 to 100 µM,"O=C(Cc1cnccn1)Nc1ccc(CCOc2ccccc2-c2c[nH]cn2)cc1 [compound 1153, N-(4-(2-(2-(1H-imidazol-4-yl)phenoxy)ethyl)phenyl)-2-(pyrazin-2-yl)acetamide]"
11,1 to 10 µM,"O=C(Cc1cccs1)N1CCC(CCOc2ccccc2-c2c[nH]cn2)CC1 [compound 1176, 1-(4-(2-(2-(1H-imidazol-4-yl)phenoxy)ethyl)piperidin-1-yl)-2-(thiophen-2-yl)ethanone]"
12,< 1 µM,"NC(C(=O)Nc1ccc(CCOc2ccccc2-c2c[nH]cn2)c(Cl)c1)C1CCOCC1 (centres unmarked) [compound 1333, N-(4-(2-(2-(1H-imidazol-4-yl)phenoxy)ethyl)-3-chlorophenyl)-2-amino-2-(tetrahydro-2H-pyran-4-yl)acetamide]"
13,1 to 10 µM,"C=C(COc1ccccc1-c1c[nH]cn1)c1coc2ccccc12 [compound 1030, 4-(2-(2-(benzofuran-3-yl)allyloxy)phenyl)-1H-imidazole]"
14,10 to 100 µM,"CN1CCN(CC(=O)Nc2ccc(CCOc3ccccc3-c3c[nH]cn3)cc2)CC1 [compound 1212, N-(4-(2-(2-(1H-imidazol-4-yl)phenoxy)ethyl)phenyl)-2-(4-methylpiperazin-1-yl)acetamide]"
15,10 to 100 µM,"Oc1cccc(OCCc2ccncc2)c1-c1cnc[nH]1 [compound 1238, 2-(1H-imidazol-5-yl)-3-(2-(pyridin-4-yl)ethoxy) phenol]"
16,1 to 10 µM,"Fc1ccccc1CCOc1ccccc1-c1cnc[nH]1 [compound 1106, 5-(2-(2-fluorophenethoxy)phenyl)-1H-imidazole]"
17,1 to 10 µM,"Oc1cc(F)c(Cl)cc1-c1cnc[nH]1 [compound 1130, 4-chloro-5-fluoro-2-(1H-imidazol-5-yl)phenol]"
18,1 to 10 µM,"O=C(Cn1ccnc1)Nc1ccc(CCOc2ccccc2-c2c[nH]cn2)cc1 [compound 1217, N-(4-(2-(2-(1H-imidazol-4-yl)phenoxy)ethyl)phenyl)-2-(1H-imidazol-1-yl)acetamide]"
19,10 to 100 µM,"c1ccc(-c2c[nH]cn2)c(OCCc2ccsc2)c1 [compound 1203, 4-(2-(2-(thiophen-3-yl)ethoxy)phenyl)-1H-imidazole]"
20,10 to 100 µM,"CCOC(=O)Oc1ccc(Br)cc1-c1cn(C(=O)OCC)cn1 [compound 1036, ethyl 4-(5-bromo-2-(ethoxycarbonyloxy)phenyl)-1H-imidazole-1-carboxylate]"
21,1 to 10 µM,"O=S(=O)(Cc1ccccc1)Nc1ccc(CCOc2ccccc2-c2c[nH]cn2)cc1 [compound 1151, N-(4-(2-(2-(1H-imidazol-4-yl)phenoxy)ethyl)phenyl)-1-phenylmethanesulfonamide]"
22,10 to 100 µM,"CCOC(=O)/C=C/c1ccccc1-c1c[nH]cn1 [compound 1014, (E)-ethyl 3-(2-(1H-imidazol-4-yl)phenyl)acrylate]"
23,1 to 10 µM,"Oc1cc(Cl)cc(-c2cnc[nH]2)c1O [compound 1221, 5-chloro-3-(1H-imidazol-5-yl)benzene-1,2-diol]"
24,10 to 100 µM,"CCOC(=O)c1ccc(COc2ccccc2-c2c[nH]cn2)cc1 [compound 1029, ethyl 4-((2-(1H-imidazol-4-yl)phenoxy)methyl) benzoate]"
25,1 to 10 µM,"Oc1cccc(OCCc2cccc(Cl)c2)c1-c1cnc[nH]1 [compound 1160, 3-(3-chlorophenethoxy)-2-(1H-imidazol-5-yl) phenol]"
26,< 1 µM,"Nc1ncccc1C(=O)Nc1ccc(CCOc2ccccc2-c2c[nH]cn2)c(Cl)c1 [compound 1345, N-(4-(2-(2-(1H-imidazol-4-yl)phenoxy)ethyl)-3-chlorophenyl)-2-aminonicotinamide]"
27,< 1 µM,"O=C(Cc1ccc([N+](=O)[O-])cc1)Nc1ccc(CCOc2ccccc2-c2c[nH]cn2)cc1 [compound 1247, N-(4-(2-(2-(1H-imidazol-4-yl)phenoxy)ethyl)phenyl)-2-(4-nitrophenyl)acetamide]"
